Test results reported in article PMC9570109, “Improved Trimethylangelicin Analogs for Cystic Fibrosis: Design, Synthesis and Preliminary Screening” (International Journal of Molecular Sciences, 2022).

Experiments:
salmon testes DNA = test: Photoadduct formation with DNA under UVA irradiation (TLC analysis); details: 15 J/cm2 UVA
Description: The total energy that struck the sample was monitored by means of a radiometer (Variocontrol, Waldmann, Villingen-Schwenningen, Germany), equipped with a Variocontrol UV Sensor (Waldmann). The radiant power emitted by the UVA lamp was about […]. The samples were maintained at room temperature during irradiation.
The test compounds were dissolved in ethanol (2 mg/mL) and salmon testes DNA (Sigma-Aldrich) was dissolved in 10 mM NaCl and 1 mM EDTA solution (1.5 × 10^−3 M). Each test solution (250 μL) was added dropwise to the DNA solution (5 mL). The mixture was irradiated with 15 J/cm2 UVA light in a glass dish for 1 h. After irradiation, the DNA was precipitated with 1 M NaCl and two volumes of cold ethanol; the precipitated DNA was collected, washed with 80% ethanol, dried, and then dissolved in water. To obtain hydrolysis, the final solution was acidified with 1 M HCl, heated at 100 °C for 1 h, neutralized with NaOH and extracted three times with chloroform. Then, all of the organic layers were collected, dried under a high vacuum, and dissolved in ethanol. The hydrolyzed mixtures were separated by thin layer chromatography (TLC; F254 plates, 0.25 mm, Merck, Darmstadt, Germany) eluting with EtOAc/EtOH (9:1). The plates were analyzed with a Mineral Light Lamp VL-4LC VILBERT-LOURMAT (Vilber, Marne-la-Vallée, France).

[1] = tested on: Salmonella typhimurium TA97A; test: Ames mutagenicity assay, plate incorporation, TA97A; assay type: cell-based
Description: The mutagenicity assay was performed for the test compounds following the plate incorporation method with the histidine-requiring Salmonella typhimurium mutant TA97A, TA98, TA100, and TA1535 strains purchased by Molecular Toxicology Inc. (Boone, NC, USA; moltox.com). All strains (100 µL per plate of fresh overnight cultures) were checked with and without the addition of 0.5 mL of a 5% S9 exogenous metabolic activator (S9 mix). The lyophilized post-mitochondrial supernatant S9 mix (Aroclor 1254-induced, Sprague–Dawley male rat liver in 0.154 M KCl solution), commonly used for the activation of pro-mutagens in mutagenic metabolites (Molecular Toxicology, Inc., Boone, NC, USA), was stored at −80 °C before use. The concentration tested for all the samples were 5, 10, 20, 50, and 100 µL/plate from a stock solution of 500 nM. A fully grown culture of the appropriate tester strain (0.1 mL) was added to 2 mL molten top agar (0.6% agar, 0.6% NaCl, 0.5 mM L-histidine/biotin solution) at 46 °C, together with 0.1 mL of each sample solution at different concentrations, and 0.5 mL S9 mix for assays with metabolic activation. The ingredients were thoroughly mixed and poured onto minimal glucose agar plates (1.5% agar in 2% Vogel–Bonner medium E with 5% glucose solution). DMSO was used as negative a control (100 µL/plate). Positive controls were prepared as follows: 2-aminoanthracene (2 µg/plate) and 2-nitrofluorene (2 µg/plate) for TA 97A, TA98 and TA1535 with and without metabolic activator (S9 mix), respectively; 2-aminoanthracene (2 µg/plate) and sodium azide (2 µg/plate) for TA100, with and without metabolic activator (S9 mix), respectively. The plates were incubated at 37 °C for 72 h and then his+ revertants were checked and counted using a Colony Counter 560 Suntex (Antibioticos, Italy). A sample was considered mutagenic when the observed number of colonies was at least twofold over the spontaneous level of revertants. All determinations were made in triplicate. Statistical analysis: relative standard deviations were calculated using the statistical software STATISTICA 6.0 (StatSoft, Italia srl, Vigonza, Italy). […]
Salmonella typhimurium TA97A Salmonella typhimurium TA98 Salmonella typhimurium TA100 Salmonella typhimurium 1535 […]
average SD t/c average SD t/c average SD t/c average SD t/c average SD t/c average SD t/c average SD t/c average SD t/c […]
*Significant values according to Ames computation (Maron & Ames, 1983); DMSO, C+: negative and positive controls respectively; SD: Standard Deviation; t/c: number of revertant colonies in treated plates/number of revertant colonies in […]

[2] = +S9, 5 µL/plate of 500 nM stock
[3] = +S9, 10 µL/plate of 500 nM stock
[4] = +S9, 20 µL/plate of 500 nM stock
[5] = +S9, 50 µL/plate of 500 nM stock
[6] = +S9, 100 µL/plate of 500 nM stock
[7] = -S9, 5 µL/plate of 500 nM stock
[8] = -S9, 10 µL/plate of 500 nM stock
[9] = -S9, 20 µL/plate of 500 nM stock
[10] = -S9, 50 µL/plate of 500 nM stock
[11] = -S9, 100 µL/plate of 500 nM stock

| SMILES | photoadduct formation with DNA upon UVA irradiation (salmon testes DNA) | revertant colonies, average [1, 2] | t/c (revertant colonies treated/untreated plates) [1, 2] | revertant colonies, average [1, 3] | t/c (revertant colonies treated/untreated plates) [1, 3] | revertant colonies, average [1, 4] | t/c (revertant colonies treated/untreated plates) [1, 4] | revertant colonies, average [1, 5] | t/c (revertant colonies treated/untreated plates) [1, 5] | revertant colonies, average [1, 6] | t/c (revertant colonies treated/untreated plates) [1, 6] | revertant colonies, average [1, 7] | t/c (revertant colonies treated/untreated plates) [1, 7] | revertant colonies, average [1, 8] | t/c (revertant colonies treated/untreated plates) [1, 8] | revertant colonies, average [1, 9] | t/c (revertant colonies treated/untreated plates) [1, 9] | revertant colonies, average [1, 10] | t/c (revertant colonies treated/untreated plates) [1, 10] | revertant colonies, average [1, 11] | other results |
| --- | --- | --- | --- | --- | --- | --- | --- | --- | --- | --- | --- | --- | --- | --- | --- | --- | --- | --- | --- | --- | --- |
| Cc1cc2c(-c3ccccc3)cc(=O)oc2c2c(C)coc12 [4-PhDMA] | only the unchanged bands | 87.0 | 0.8 | 117.0 | 1.1 | 98.0 | 0.9 | 94.0 | 0.9 | 109.5 | 1.0 | 79.5 | 1.0 | 82.5 | 1.1 | 82.0 | 1.1 | 82.5 | 1.1 | 82.5 | t/c (revertant colonies treated/untreated plates) [1, 11]: 1.1 |
| Cc1cc(=O)oc2c1cc(-c1ccccc1)c1occ(C)c12 [6-PhDMA] | only the unchanged bands | 116.5 | 1.1 | 92.5 | 0.8 | 99.0 | 0.9 | 107.0 | 1.0 | 101.0 | 0.9 | 75.0 | 1.0 | 69.5 | 0.9 | 86.5 | 1.1 | 79.5 | 1.0 | 88.5 | t/c (revertant colonies treated/untreated plates) [1, 11]: 1.1 |
| Cc1cc(=O)oc2c1cc(-c1ccc(N)cc1)c1occ(C)c12 [pANDMA] | only the unchanged bands | 88.5 | 0.8 | 100.5 | 0.9 | 92.5 | 0.8 | 104.5 | 1.0 | 101.0 | 0.9 | 82.5 | 1.1 | 80.5 | 1.0 | 82.0 | 1.1 | 86.5 | 1.1 | 86.0 | t/c (revertant colonies treated/untreated plates) [1, 11]: 1.1 |
